These results are taken from patent US20250345387A1, “CORONAVIRUS THERAPEUTICS AND TREATMENT METHODS” (priority 2020, published 2025).

One assay relates to MAPK (Erk2). The experiment in a line: MAPK phosphorylation ELISA in HUVEC. The conditions noted are these: HUVEC stimulation. Format: cell-based, human. As to the method:
HUVECs were cultured as above. Lyates were prepared in (1 mM EDTA, 0.5% Triton X-100, 6M urea, 5 mM NaF, 100 uM PMSF, 25 mM sodium pyrophosphate, 1 mM sodium orthovanadate, pH 7.2-7.4, 1× cOmplete™ mini EDTA-free protease inhibitor). BCA protein concentration kit was used to measure protein concentration of each lysate as per manufacturer's instructions (Thermo Scientific). Samples were subjected to ELISAs that measured phosphorylated MAPK and total MAPK levels according to the manufacturer's protocol (R&D Systems). 20 μg or 10 μg of protein from each sample was loaded in duplicate for phosphorylated MAPK and total MAPK readings respectively. Phosphorylated MAPK:total MAPK ratios were determined for each sample. The level of MAPK phosphorylation for all treatment groups were then normalized to that of the no treatment group (NT, EBM only) in each experiment.

Assay [1] relates to Influenza A virus HKx31 (H3N2). The class given is in vivo, C57BL/6J mice. The note with it: mouse, in vivo.
In assay [2] the test system is histamine-induced vascular leakage. The experiment in a line: Cutaneous histamine challenge, Evans blue dye extravasation. Format: in vivo, male FVB mice. The source says:
10-week old male FVB mice were purchased from Jackson Laboratories. Mice were housed in a Vivarium on a standard light:dark cycle and were given free access to food and water. On day 0 mice were anesthetized with isoflurane and the entire dorsal area was shaved with an electric shaver. Residual hair was removed via application of depilatory cream. Residual cream was removed with sterile gauze and water. […] Immediately following Evans blue dye administration, and while still under anesthesia, a single PBS injection (dorsal, intradermal, 50 ul) and three equally spaced histamine injections (dorsal, intradermal, 1.25 ug contained in 50 ul) were applied. Once the intradermal injections were complete, the mice were removed from anesthesia and were placed back into their housing cages for 25 minutes.
Cardiac transperfusion After 25 minutes of exposure to histamine the mice were placed under anesthesia with an appropriate volume of 2.5% avertin (100 ul/10 g body weight via intraperitoneal injection). Once a deep plane of anesthesia was produced the mice were place and secured in a supine position, the chest was surgically opened, the heart was exposed and a catheter terminating in a 23 gauge needle was inserted into the left ventricle. Once the catheter was securely in place, a cut in the right atria was performed and 25 ml of cold PBS was delivered, via the catheter at 100 mmHg to flush out all intravascular Evans blue dye. Once a mouse was effectively perfused the dorsal skin was surgically removed. Four, 12 mm skin biopsies were collected (1PBS, 3 histamine) for each mouse using a standardized skin punch. In all cases, the biopsy that received PBS served as a baseline control for that individual mouse.
Quantification of Evans blue dye extravassation Skin biopsies were placed in labelled tubes and placed in a 60 degree Celsius oven for 16 hrs to removed all moisture. […] An Evans blue dye standard curve encompassing high and low experimental data points was constructed such that the amount of Evans blue dye extravassation (ug/g of skin) could be calculated.

Assay [3] has as its system Influenza A virus HKx31 (H3N2). The note with it: 100 ng/mouse/day; Sugiyama M G et al, 2015; cited from earlier work.
The target in assay [4] is T1, Tie2 receptor (Rattus norvegicus, UniProt A0A8I5ZW61).
T1 construct: host or cells: primary rat glomerular endothelial cells
The experiment in a line: Tie2 phosphorylation ELISA in primary rat glomerular endothelial cells. The class given is cell-based. The note with it: positive control. How it is done:
Rat primary glomerular endothelial cells (Cell Biologics) were grown in Complete rat endothelial cell medium/w kit (Cell Biologics) in 20% O2, 5% CO2 and 37° C. humidified chamber and split 1:3 once reaching 80-90% confluency. To examine the activation of Tie2 by MPA-Br in rat kidney glomerular endothelial cells, 95-100% confluent cells were stimulated with indicated concentrations of the test agent in serum-containing media for 15 minutes. Human Ang-1 (R&D Systems) was used as positive control. Cell lysates were collected using lysis buffer IC12 (detailed above) recommended in Human phospho-Tie-2 ELISA kit (R&D Systems), tyrosine-phosphorylated Tie2 and total Tie2 were measured using ELISA (Human phospho-Tie2 and total-Tie2 ELISA kits, R&D Systems) with substitution of capture antibody validated for rat Tie2. Mouse anti-Tie2 antibody (BD Pharmingen™) and rabbit TEK polyclonal antibody (MyBioSource) were used as capture antibody in pTie2 and total Tie2 ELISA, respectively. The level of Tie2 phosphorylation for all treatment groups was then normalized to that of the no treatment group (NT, complete rat endothelial cell medium) in each experiment.
On the technique in general: ELISA stands for enzyme-linked immunosorbent assay.

The test system of assay [5] is Tie2 receptor. The experiment in a line: Tie2 phosphorylation ELISA in primary canine aortic endothelial cells. The class given is cell-based. The conditions noted are these: positive control. How it is done:
Canine primary aortic endothelial cells (Cell Biologics) were grown in Complete canine endothelial cell medium/w kit (Cell Biologics) in 20% O2, 5% CO2 and 37° C. humidified chamber and split 1:3 once reaching 80-90% confluency. Tie2 activation studies performed on primary cynomolgus monkey glomerular endothelial cells were performed according to approaches detailed above for the rat primary glomerular endothelial cell studies.

Assay [6] concerns Tie2 receptor. The experiment in a line: Tie2 phosphorylation ELISA in primary cynomolgus monkey glomerular endothelial cells. Format: cell-based. The note with it: positive control. How it is done: Primary cynomolgus monkey glomerular endothelial cells (Cell Biologics) were cultured according to details provided above for HMVEC^tert. Tie2 activation studies performed on primary cynomolgus monkey glomerular endothelial cells were performed according to approaches detailed above for the rat primary glomerular endothelial cell studies.

T1 sequence (A0A8I5ZW61 20-1121): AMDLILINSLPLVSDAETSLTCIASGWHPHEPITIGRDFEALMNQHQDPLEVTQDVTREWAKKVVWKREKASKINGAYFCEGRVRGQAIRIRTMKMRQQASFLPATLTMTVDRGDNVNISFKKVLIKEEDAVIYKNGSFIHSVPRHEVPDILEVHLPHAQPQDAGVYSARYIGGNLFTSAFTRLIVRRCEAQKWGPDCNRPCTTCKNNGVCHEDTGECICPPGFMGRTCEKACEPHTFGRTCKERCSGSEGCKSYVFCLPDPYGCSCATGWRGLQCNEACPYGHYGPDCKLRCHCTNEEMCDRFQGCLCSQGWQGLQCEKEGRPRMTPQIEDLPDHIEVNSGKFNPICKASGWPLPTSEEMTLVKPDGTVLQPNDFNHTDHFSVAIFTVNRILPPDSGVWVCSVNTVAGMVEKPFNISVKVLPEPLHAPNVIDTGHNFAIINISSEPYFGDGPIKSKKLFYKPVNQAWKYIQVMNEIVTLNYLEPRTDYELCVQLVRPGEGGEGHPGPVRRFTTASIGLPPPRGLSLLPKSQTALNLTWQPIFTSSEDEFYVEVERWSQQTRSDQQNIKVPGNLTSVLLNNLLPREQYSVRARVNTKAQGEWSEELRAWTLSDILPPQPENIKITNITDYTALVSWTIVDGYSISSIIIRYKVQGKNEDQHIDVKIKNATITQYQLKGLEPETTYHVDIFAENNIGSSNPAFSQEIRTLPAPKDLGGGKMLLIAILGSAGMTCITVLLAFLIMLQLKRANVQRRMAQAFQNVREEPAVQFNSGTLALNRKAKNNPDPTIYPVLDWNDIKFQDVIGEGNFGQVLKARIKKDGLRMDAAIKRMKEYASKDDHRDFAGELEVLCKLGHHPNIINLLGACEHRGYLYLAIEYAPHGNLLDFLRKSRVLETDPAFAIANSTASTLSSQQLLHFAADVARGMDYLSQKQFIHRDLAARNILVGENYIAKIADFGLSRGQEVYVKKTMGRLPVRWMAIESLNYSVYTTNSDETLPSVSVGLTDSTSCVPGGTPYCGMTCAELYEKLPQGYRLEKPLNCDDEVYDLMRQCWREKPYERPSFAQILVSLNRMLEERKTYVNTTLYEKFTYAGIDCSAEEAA

Regarding “parental Vasculotide: 10 kDa 4-armed polyethylene glycol with Tie2 binding peptides (CHHHRHSF) attached via maleimide; mimics Ang1 [reference compound]”, the “activation of MAPK (phosphorylated MAPK:total MAPK)” value in the assay with MAPK (Erk2) was “downstream activation of MAPK”. Further, in assay [1], the activity score entry was “significantly improved”, the “lung oxygenation (SpO2)” value is on record as “significantly improved” and the “thermal regulation (body temperature)” value is “significantly improved”. Besides, in assay [1] (ip), the “overall survival of infected mice” value is “significantly improved overall survival”. For the same molecule, the “reduction of histamine-induced vascular leakage compared with MPA-Br” value in assay [2] (parental Vasculotide 500 ng/mouse vs MPA-Br at equal dose or 125 ng/mouse) is on record as “performed less well”. In addition, the “vascular leakage (extravassation of Evans blue dye) vs vehicle treated mice” value in assay [2] (prophylactic IP dose one hour prior to cutaneous histamine challenge) is on record as “significantly less vascular leakage”. In addition, in assay [3], the “survival following infection with X31 influenza” value was “ineffective at enhancing survival”.

B1: human recombinant Ang1: Human recombinant angiopoietin 1, positive control for Tie2 and MAPK activation (protein)
chain: SNQRRSPENSGRRYNRIQHGQCAYTFILPEHDGNCRESTTDQYNTNALQRDAPHVEPDFSSQKLQHLEHVMENYTQWLQKLENYIVENMKSEMAQIQQNAVQNHTATMLEIGTSLLSQTAEQTRKLTDVETQVLNQTSRLEIQLLENSLSTYKLEKQLLQQTNEILKIHEKNSLLEHKILEMEGKHKEELDTLKEEKENLQGLVTRQTYIIQELEKQLNRATTNNSVLQKQQLELMDTVHNLVNLCTKEGVLLKGGKREEEKPFRDCADVYQAGFNKSGIYTIYINNMPEPKKVFCNMDVNGGGWTVIQHREDGSLDFQRGWKEYKMGFGNPSGEYWLGNEFIFAITSQRQYMLRIELMDWEGNRAYSQYDRFHIGNEKQNYRLYLKGHTGTAGKQSSLILHGADFSTKDADNDNCMCKCALMLTGGWWFDACGPSNLNGMFYTAGQNHGKLNGIKWHYFKGPSYSLRSTTMMIRPLDF
In the case of B1, the “Tie2 phosphorylation compared to no treatment (NT)” value in the assay with Tie2 receptor [4], with Tie2 receptor [5] and with Tie2 receptor [6] was “significant increase in baseline Tie2 phosphorylation” in each case.
